Where two headings read alike, the source gives them in different places.
Experiments:
[1] = target: T1, NLuc (Oplophorus gracilirostris, UniProt Q9GV45, A31E/A60N/A81I/F95D/I117V/K70R/L54V/L99Q/M102K/N193R/P142E/Q151K/Q38R/Q45L/V71I/Y165I); assay type: biochemical; settings: - ATP
T1 construct: His tag (inferred from IMAC purification); made in house; host or cells: E. coli
Outline: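 Luminescence was read 10 min after Nano-Glo reagent addition. Enzyme was 1 nM NLuc in PBS/0.05% IGEPAL buffer, with or without ATP.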

[2] = target: P. pyralis FLuc (Photinus pyralis, UniProt P08659); test: FLuc enzymatic luminescence assay, P. pyralis FLuc; assay type: biochemical; settings: FLuc enzymatic assay; for IC50: read-out: IC50 or SDR50 (mM) FLuc E
Outline: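 Runs with and without 10 µM ATP: compounds were pre-incubated with FLuc (1–10 nM, PBS pH 7.4) at ambient temperature, light-protected, for 30–60 min. Luminescence was imaged 5 min after adding 10 µM D-luciferin (final). Inhibition was scaled between DMSO neutral and no-enzyme controls.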

[3] = target: FLuc-C-NLuc (firefly luciferase) (Photinus pyralis, UniProt P08659, form not given/L550V); test: SDR assay, FLuc-C-NLuc; settings: - ATP
[4] = target: FLuc-C-HiBiT (firefly luciferase) (Photinus pyralis, UniProt P08659, form not given/L550V); test: SDR assay, FLuc-C-HiBiT; settings: SDR max. response, clade S
Chain of FLuc-C-HiBiT (firefly luciferase) (P08659 2-550 L550V, form open): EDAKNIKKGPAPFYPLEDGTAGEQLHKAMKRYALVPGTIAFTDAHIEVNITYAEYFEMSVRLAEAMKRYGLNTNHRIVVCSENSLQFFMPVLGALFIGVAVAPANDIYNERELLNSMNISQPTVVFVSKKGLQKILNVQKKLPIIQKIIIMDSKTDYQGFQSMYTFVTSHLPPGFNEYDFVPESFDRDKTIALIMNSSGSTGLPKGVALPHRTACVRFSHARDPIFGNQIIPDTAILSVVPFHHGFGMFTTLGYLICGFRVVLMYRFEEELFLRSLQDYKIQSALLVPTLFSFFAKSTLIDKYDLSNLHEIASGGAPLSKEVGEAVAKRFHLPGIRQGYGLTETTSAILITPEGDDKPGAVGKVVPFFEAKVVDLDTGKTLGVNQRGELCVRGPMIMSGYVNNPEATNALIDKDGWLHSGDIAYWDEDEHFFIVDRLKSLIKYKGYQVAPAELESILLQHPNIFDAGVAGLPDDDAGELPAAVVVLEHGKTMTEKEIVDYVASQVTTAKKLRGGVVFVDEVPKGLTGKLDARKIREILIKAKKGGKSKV

Chain of P. pyralis FLuc (P08659 whole entry): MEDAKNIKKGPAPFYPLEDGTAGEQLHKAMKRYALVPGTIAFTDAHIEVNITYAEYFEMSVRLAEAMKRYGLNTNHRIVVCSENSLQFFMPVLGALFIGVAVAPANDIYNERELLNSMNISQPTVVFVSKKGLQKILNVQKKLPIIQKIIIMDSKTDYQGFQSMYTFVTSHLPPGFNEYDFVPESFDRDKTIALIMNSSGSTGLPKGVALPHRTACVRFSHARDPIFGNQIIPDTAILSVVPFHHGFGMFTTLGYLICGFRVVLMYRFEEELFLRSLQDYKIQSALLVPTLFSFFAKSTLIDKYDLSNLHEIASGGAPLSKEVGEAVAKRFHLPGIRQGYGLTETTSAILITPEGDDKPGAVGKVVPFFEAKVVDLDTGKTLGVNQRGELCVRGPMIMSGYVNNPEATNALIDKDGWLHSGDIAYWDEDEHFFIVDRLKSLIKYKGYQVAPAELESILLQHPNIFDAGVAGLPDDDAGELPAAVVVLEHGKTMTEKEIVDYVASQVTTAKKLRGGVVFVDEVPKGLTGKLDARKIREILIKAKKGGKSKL
Chain of FLuc-C-NLuc (firefly luciferase) (P08659 2-550 L550V, form open): as the sequence (P08659 2-550 L550V, form open) above
T1 sequence (Q9GV45 other isoform, or with tags, fused parts or gaps with the stated changes): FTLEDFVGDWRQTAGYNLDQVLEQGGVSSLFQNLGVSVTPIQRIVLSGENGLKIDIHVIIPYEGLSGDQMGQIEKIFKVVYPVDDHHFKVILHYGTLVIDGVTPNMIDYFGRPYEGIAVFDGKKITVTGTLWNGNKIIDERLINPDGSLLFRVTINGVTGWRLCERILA

| SMILES | Efficacy (%) NLuc (- ATP) [1] | pIC50 or pSDR50 FLuc E [2] | Efficacy (%) FLuc E ([2]; Clade S follow-up) | IC50 [2] | Efficacy (%) FLuc-C-NLuc SDR (-ATP) [3] | % Activity (max response, + ATP) [4] | % Activity (max response, - ATP) [4] | pIC50 or pSDR50 FLuc E ([2]; Clade S follow-up) | IC50 ([2]; Clade S follow-up) |
| --- | --- | --- | --- | --- | --- | --- | --- | --- | --- |
| O=C(NCc1ccc(F)cc1F)C1CCN(C(=O)c2ncn3c2COC(c2ccccc2)C3)CC1 (stereo not shown) [NCGC00449785-01] | 0.00% | 5.06 | -69.49% | 0.0088 mM | 0.00% | 291.32% | 0.00% | – | – |
| O=C(NCc1ccccc1F)C1CCN(C(=O)c2ncn3c2COC(c2ccc(F)cc2)C3)CC1 (stereo not shown) [NCGC00449818-01] | 0.00% | – | -20.04% | – | 0.00% | 27.35% | 0.00% | – | – |
| CCc1ccc(NC(=O)C2CCN(C(=O)c3ncn4c3COC(c3ccc(F)cc3)C4)CC2)cc1 (stereo not shown) [NCGC00449925-01] | 0.00% | – | -32.74% | – | 0.00% | 47.34% | 0.00% | 4.96 | 0.0111 mM |
| COc1ccc(C2Cn3cnc(C(=O)N4CCC(C(=O)NC5CCCCC5)CC4)c3CO2)cc1 (stereo not shown) [NCGC00449860-01] | 0.00% | – | 0.00% | – | 0.00% | 0.00% | 0.00% | – | – |
| Cc1ccc(C2Cn3cnc(C(=O)N4CCC(C(=O)NC5CCCC5)CC4)c3CO2)cc1 (stereo not shown) [NCGC00449881-01] | 0.00% | – | -51.50% | – | 0.00% | 73.27% | 0.00% | 4.96 | 0.0111 mM |
| O=C(NCCCc1ccccc1)C1CCN(C(=O)c2ncn3c2COC(c2ccc(F)cc2)C3)CC1 (stereo not shown) [NCGC00449829-01] | -7.00% | 4.96 | -36.00% | 0.0111 mM | 0.00% | 29.00% | 0.00% | – | – |
| Cc1ccc(CNC(=O)C2CCN(C(=O)c3ncn4c3COC(c3ccccc3)C4)CC2)cc1 (stereo not shown) [NCGC00449774-01] | 0.00% | 5.01 | -84.01% | 0.00988 mM | 0.00% | 316.62% | 0.00% | – | – |
| O=C(NCC1CCCCC1)C1CCN(C(=O)c2ncn3c2COC(c2ccc(F)cc2)C3)CC1 (stereo not shown) [NCGC00449830-01] | 0.00% | – | 0.00% | – | 0.00% | 0.00% | 0.00% | – | – |
| Cc1ccc(C2Cn3cnc(C(=O)N4CCC(C(=O)NC(C)c5ccccc5)CC4)c3CO2)cc1 (stereo not shown) [NCGC00449895-01] | -8.50% | – | -61.76% | – | 0.00% | 100.93% | 0.00% | 4.96 | 0.0111 mM |
| O=C(NC1CCCCCCC1)C1CCN(C(=O)c2ncn3c2COC(c2ccccc2)C3)CC1 (stereo not shown) [NCGC00449770-01] | 0.00% | 5.16 | -92.12% | 0.00699 mM | 0.00% | 338.48% | 0.00% | – | – |
| O=C(NCc1ccc(F)cc1)C1CCN(C(=O)c2ncn3c2COC(c2ccccc2)C3)CC1 (stereo not shown) [NCGC00449784-01] | 0.00% | 5.26 | -93.60% | 0.00555 mM | 0.00% | 341.35% | 0.00% | – | – |
| COc1ccc(C2Cn3cnc(C(=O)N4CCC(C(=O)NCC5CC5)CC4)c3CO2)cc1 (stereo not shown) [NCGC00449873-01] | 0.00% | – | 0.00% | – | 0.00% | 0.00% | 0.00% | – | – |
| O=C(NC1CC1)C1CCN(C(=O)c2ncn3c2COC(c2ccc(F)cc2)C3)CC1 (stereo not shown) [NCGC00449806-01] | 0.00% | 4.91 | -31.66% | 0.0124 mM | 0.00% | 47.67% | 0.00% | – | – |
| COCCCNC(=O)C1CCN(C(=O)c2ncn3c2COC(c2ccc(OC)cc2)C3)CC1 (stereo not shown) [NCGC00449877-01] | 0.00% | – | 0.00% | – | 0.00% | 0.00% | 0.00% | – | – |
| O=C(NCc1ccccc1)C1CCN(C(=O)c2ncn3c2COC(c2ccc(F)cc2)C3)CC1 (stereo not shown) [NCGC00449813-01] | 0.00% | 4.91 | -31.52% | 0.0124 mM | 0.00% | 33.80% | 0.00% | – | – |
| Cc1ccc(NC(=O)C2CCN(C(=O)c3ncn4c3COC(c3ccccc3)C4)CC2)cc1C (stereo not shown) [NCGC00449904-01] | 0.00% | – | -72.15% | – | 0.00% | 306.70% | 0.00% | 5.01 | 0.00988 mM |
| Cc1ccc(C2Cn3cnc(C(=O)N4CCC(C(=O)NCc5cc(F)ccc5F)CC4)c3CO2)cc1 (stereo not shown) [NCGC00449900-01] | 0.00% | – | -40.44% | – | 0.00% | 59.08% | 0.00% | 4.96 | 0.0111 mM |
| CC(NC(=O)C1CCN(C(=O)c2ncn3c2COC(c2ccc(F)cc2)C3)CC1)c1ccccc1 (stereo not shown) [NCGC00449824-01] | 0.00% | – | -12.35% | – | 0.00% | 0.00% | 0.00% | – | – |
| O=C(NCc1ccccc1)C1CCN(C(=O)c2ncn3c2COC(c2ccccc2)C3)CC1 (stereo not shown) [NCGC00449773-01] | 0.00% | 5.56 | -92.80% | 0.00278 mM | 0.00% | 344.70% | 0.00% | – | – |
| COCCNC(=O)C1CCN(C(=O)c2ncn3c2COC(c2ccc(F)cc2)C3)CC1 (stereo not shown) [NCGC00449834-01] | 0.00% | – | -35.83% | – | 0.00% | 67.53% | 0.00% | 4.91 | 0.0124 mM |
| COc1ccc(C2Cn3cnc(C(=O)N4CCC(C(=O)NC(C)C)CC4)c3CO2)cc1 (stereo not shown) [NCGC00449857-01] | 0.00% | – | -19.61% | – | 0.00% | 13.32% | 0.00% | – | – |
